Source: patent US9987276B2 (Celgene CAR LLC, priority 2008, dated 2018)
Like-named read-outs stand apart in the source and are kept apart here.

Experiments:
EGFR-WT = EGFR-WT (Homo sapiens (Human), UniProt P00533); assay: Omnia assay for potency assessment against EGFR (WT)
BTK [1] = molecular target: T1, BTK (Homo sapiens (Human), UniProt Q06187); assay: Omnia assay for potency assessment against BTK; type: biochemical; details: [BTK]=5 nM, Omnia assay; read-out: BTK Inhibition (IC50)
Method: The modified BTK-optimized reagent conditions for the above protocol are:
[BTK]=5 nM, [ATP]=[…], [Y5-Sox]=[…] (ATP KMapp˜[…]).

BTK [2] = molecular target: T1, BTK; assay: BTK Ramos cellular assay (PLCγ2 phosphorylation); type: cell-based; details: Ramos cells, 1 hour compound, anti-IgM stimulation, p-PLCγ2; read-out: BTK Inhibition (IC50), BTK Ramos cellular inhibition
Method: Ramos cells were grown in suspension in T225 flasks, spun down, resuspended in 50 ml serum-free media and incubated for 1 hour. […] Ramos cells were incubated with compound for 1 hour, washed again and resuspended in 100 ul serum-free media. Cells were then stimulated with 1 μg of goat F(ab′)2 Anti-Human IgM and incubated on ice for 10 minutes to activate B cell receptor signaling pathways. After 10 minutes, the cells were washed once with PBS and then lysed on ice with Invitrogen Cell Extraction buffer. 16 μg total protein from lysates were loaded on gel and blots were probed for phosphorylation of the BTK substrate PLCγ2.

ITK = ITK (Homo sapiens (Human), UniProt Q08881); assay: Omnia assay for potency assessment against active forms of ITK kinase; type: biochemical; details: [ITK]=10 nM, [ATP]=25, [Y6-Sox]=10 μM; read-out: ITK Inhibition
Chain of ITK (Q08881 whole entry): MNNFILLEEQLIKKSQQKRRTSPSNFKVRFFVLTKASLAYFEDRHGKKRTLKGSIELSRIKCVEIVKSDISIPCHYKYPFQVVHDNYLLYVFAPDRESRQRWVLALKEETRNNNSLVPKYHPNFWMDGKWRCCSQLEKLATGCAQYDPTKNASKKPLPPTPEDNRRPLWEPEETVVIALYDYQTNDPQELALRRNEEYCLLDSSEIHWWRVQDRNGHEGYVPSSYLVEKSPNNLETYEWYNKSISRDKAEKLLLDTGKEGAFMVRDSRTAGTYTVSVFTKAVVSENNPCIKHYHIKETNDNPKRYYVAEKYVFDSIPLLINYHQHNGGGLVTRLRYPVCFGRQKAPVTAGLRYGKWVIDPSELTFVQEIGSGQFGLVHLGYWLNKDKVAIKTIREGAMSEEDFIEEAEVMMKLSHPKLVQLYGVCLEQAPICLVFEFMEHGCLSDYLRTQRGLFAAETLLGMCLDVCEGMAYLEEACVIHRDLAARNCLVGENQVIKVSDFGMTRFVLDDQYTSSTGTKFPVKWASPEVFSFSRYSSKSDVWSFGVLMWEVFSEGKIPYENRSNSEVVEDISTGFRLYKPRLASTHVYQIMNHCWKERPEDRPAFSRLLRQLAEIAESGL
Method: [ITK]=10 nM, [ATP]=25 [Y6-Sox]=10 μM (ATP KMapp=33 μM).

[3] = read-out: EGFR (wild type inhibition), EGFR wild type

T1 sequence (Q06187 whole entry): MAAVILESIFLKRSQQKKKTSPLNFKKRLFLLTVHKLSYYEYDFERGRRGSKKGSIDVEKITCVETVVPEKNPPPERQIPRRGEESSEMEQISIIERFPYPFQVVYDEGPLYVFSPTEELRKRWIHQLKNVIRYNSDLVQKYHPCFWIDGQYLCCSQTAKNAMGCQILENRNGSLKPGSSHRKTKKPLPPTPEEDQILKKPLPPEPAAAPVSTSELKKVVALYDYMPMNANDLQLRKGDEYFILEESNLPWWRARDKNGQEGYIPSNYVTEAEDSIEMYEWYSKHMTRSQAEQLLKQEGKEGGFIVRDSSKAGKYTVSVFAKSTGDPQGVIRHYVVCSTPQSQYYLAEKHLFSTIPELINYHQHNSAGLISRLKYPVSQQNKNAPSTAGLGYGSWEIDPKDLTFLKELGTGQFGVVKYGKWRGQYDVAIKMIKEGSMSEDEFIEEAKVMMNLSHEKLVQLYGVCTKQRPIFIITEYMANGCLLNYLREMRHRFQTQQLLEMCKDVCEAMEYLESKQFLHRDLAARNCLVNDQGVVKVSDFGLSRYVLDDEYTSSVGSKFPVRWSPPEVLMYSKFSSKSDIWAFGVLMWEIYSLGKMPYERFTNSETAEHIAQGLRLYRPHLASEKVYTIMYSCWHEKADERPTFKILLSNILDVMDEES
Chain of EGFR-WT (P00533 668-1210): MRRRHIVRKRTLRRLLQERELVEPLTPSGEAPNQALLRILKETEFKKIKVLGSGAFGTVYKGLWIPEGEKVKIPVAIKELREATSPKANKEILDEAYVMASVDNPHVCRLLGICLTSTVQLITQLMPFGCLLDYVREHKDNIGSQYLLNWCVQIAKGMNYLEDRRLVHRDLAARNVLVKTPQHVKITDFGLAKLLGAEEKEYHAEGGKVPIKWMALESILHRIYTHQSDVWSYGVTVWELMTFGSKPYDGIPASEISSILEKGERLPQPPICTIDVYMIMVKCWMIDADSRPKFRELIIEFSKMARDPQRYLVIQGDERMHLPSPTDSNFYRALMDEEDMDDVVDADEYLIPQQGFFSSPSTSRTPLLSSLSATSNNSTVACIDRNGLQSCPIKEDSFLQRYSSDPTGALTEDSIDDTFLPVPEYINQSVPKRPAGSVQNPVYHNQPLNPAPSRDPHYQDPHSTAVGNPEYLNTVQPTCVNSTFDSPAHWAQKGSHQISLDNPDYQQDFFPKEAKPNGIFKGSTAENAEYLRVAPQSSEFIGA

SMILES	IC50 (EGFR-WT) [nM]	IC50 (BTK [1]) [nM]	IC50 (BTK [2]) [nM]	IC50 (ITK) [nM]	IC50 (EGFR-WT; [3]) [nM]
C=CC(=O)N(C)Cc1cccc(Nc2nc(Nc3ccccc3)ncc2C)c1 [Compound I-220, N-methyl-N-(3-(5-methyl-2-(phenylamino)pyrimidin-4-ylamino)benzyl)acrylamide]	100 to 1000	< 10	10 to 100	100 to 1000	–
C=CC(=O)Nc1cccc(Nc2nc(Nc3cccc(OCCO)c3)ncc2F)c1 [Compound I-105, N-(3-(5-fluoro-2-(3-(2-hydroxyethoxy)phenylamino)pyrimidin-4-ylamino)phenyl)acrylamide]	10 to 100	< 10	< 10	10 to 100	–
C=CC(=O)Nc1cccc(Nc2nc(Nc3ccc(Cl)c(OCCOC)c3)ncc2F)c1 [Compound I-321, N-(3-(2-(4-chloro-3-(2-methoxyethoxy)phenylamino)-5-fluoropyrimidin-4-ylamino)phenyl)acrylamide]	100 to 1000	< 10	< 10	100 to 1000	–
C=CC(=O)N1CCc2ccc(Nc3nc(Nc4ccc(OC)nc4)ncc3F)cc21 [Compound I-166, 1-(6-(5-fluoro-2-(6-methoxypyridin-3-ylamino)pyrimidin-4-ylamino)indolin-1-yl)prop-2-en-1-one]	100 to 1000	< 10	10 to 100	< 10	–
C=CC(=O)Nc1cccc(Oc2nc(Nc3ccc(OC)nc3)ncc2C(C)=O)c1 [Compound I-188, N-{3-[5-Acetyl-2-(6-methoxy-pyridin-3-ylamino)-pyrimidin-4-yloxy]-phenyl}-acrylamide]	–	< 10	< 10	< 10	< 10
C=CC(=O)Nc1cccc(Nc2nc(Nc3ccc4c(cnn4C(=O)OC(C)(C)C)c3)ncc2F)c1 [Compound I-151]	10 to 100	< 10	< 10	10 to 100	–
C=CC(=O)Nc1cc(Nc2nc(Nc3ccc(OC(C)C)nc3)ncc2F)ccc1Cl [Compound I-107, N-(2-chloro-5-(5-fluoro-2-(6-isopropoxypyridin-3-ylamino)pyrimidin-4-ylamino)phenyl)acrylamide]	100 to 1000	< 10	10 to 100	100 to 1000	–
C=CC(=O)N1CCC[C@@H](Oc2nc(Nc3cccc(OC)c3)ncc2F)C1 [Compound I-190, (R)-1-(3-(5-fluoro-2-(3-methoxyphenylamino)pyrimidin-4-yloxy)piperidin-1-yl)prop-2-en-1-one]	100 to 1000	< 10	10 to 100	10 to 100	–
C=CC(=O)Nc1cccc(Nc2nc(Nc3ccc(OCC4CCN(C)CC4)nc3)ncc2F)c1 [Compound I-78, N-(3-(5-fluoro-2-(6-((1-methylpiperidin-4-yl)methoxy)pyridin-3-ylamino)pyrimidin-4-ylamino)phenyl)acrylamide]	–	< 10	< 10	< 10	< 10
C=CC(=O)Nc1cccc(Nc2nc(Nc3ccc(OCCCNC(=O)OC(C)(C)C)cc3)ncc2F)c1 [Compound I-198, tert-butyl 3-(4-(4-(3-acrylamidophenylamino)-5-fluoropyrimidin-2-ylamino)phenoxy)propylcarbamate]	–	< 10	< 10	100 to 1000	< 10
C=CC(=O)Nc1cccc(Nc2nc(Nc3ccc(OC)nc3)ncc2C2CC2)c1 [Compound I-167, N-(3-(5-cyclopropyl-2-(6-methoxypyridin-3-ylamino)pyrimidin-4-ylamino)phenyl)acrylamide]	–	< 10	10 to 100	< 10	< 10
C=CC(=O)Nc1cccc(Nc2nc(Nc3ccc(OCc4ccccn4)c(Cl)c3)ncc2F)c1 [Compound I-86, N-(3-(2-(3-chloro-4-(pyridin-2-ylmethoxy)phenylamino)-5-fluoropyrimidin-4-ylamino)phenyl)acrylamide]	–	< 10	< 10	–	1000 to 10000
C=C(C)C(=O)Cc1ccc(Nc2nc(Nc3ccc(OCCOC)c(F)c3)ncc2F)cc1 [Compound I-329, 1-(4-(5-fluoro-2-(3-fluoro-4-(2-methoxyethoxy)phenylamino)pyrimidin-4-ylamino)phenyl)-3-methylbut-3-en-2-one]	10 to 100	< 10	–	< 10	–
C=CC(=O)Nc1cccc(Nc2nc(Nc3cccc(OCCCNC(=O)OC(C)(C)C)c3)ncc2F)c1 [Compound I-183, tert-butyl 3-(3-(4-(3-acrylamidophenylamino)-5-fluoropyrimidin-2-ylamino)phenoxy)propylcarbamate]	–	< 10	–	100 to 1000	1000 to 10000
C=CC(=O)Nc1cccc(Nc2nc(Nc3ccc(OCCOCCOC)c(F)c3)ncc2F)c1 [Compound I-359, N-(3-(5-fluoro-2-(3-fluoro-4-(2-(2-methoxyethoxy)ethoxy)-phenylamino)pyrimidin-4-ylamino)phenyl)acrylamide]	10 to 100	< 10	–	< 10	–
C=CC(=O)Nc1cccc(Nc2nc(Nc3ccc(Cl)c(OC(C)CO)c3)ncc2F)c1 (centres unmarked) [Compound I-337, N-(3-(2-(4-chloro-3-(1-hydroxypropan-2-yloxy)phenylamino)-5-fluoropyrimidin-4-ylamino)phenyl)acrylamide]	10 to 100	< 10	–	10 to 100	–
C=CC(=O)Nc1cccc(Nc2nc(Nc3ccc(Cl)c(OCC(O)CO)c3)ncc2F)c1 (centres unmarked) [Compound I-353, N-(3-(2-(4-chloro-3-(2,3-dihydroxypropoxy)phenylamino)-5-fluoropyrimidin-4-ylamino)phenyl)acrylamide]	10 to 100	< 10	–	10 to 100	–
C=CC(=O)Nc1cccc(Nc2nc(Nc3ccc(O[C@@H]4CCOC4)nc3)ncc2F)c1 [Compound I-69, (R)—N-(3-(5-fluoro-2-(6-(tetrahydrofuran-3-yloxy)pyridin-3-ylamino)pyrimidin-4-ylamino)phenyl)acrylamide]	10 to 100	< 10	–	10 to 100	–
C=C(C)C(=O)c1ccc(Nc2nc(Nc3ccc(OCCOC)c(F)c3)ncc2F)cc1 [Compound I-324, 1-(4-(5-fluoro-2-(3-fluoro-4-(2-methoxyethoxy)phenylamino)pyrimidin-4-ylamino)phenyl)-2-methylprop-2-en-1-one]	10 to 100	< 10	–	< 10	–
C=CC(=O)Nc1cccc(Nc2nc(Nc3ccc4c(cnn4C)c3)ncc2F)c1 [Compound I-155]	–	< 10	–	< 10	< 10
C=CC(=O)Nc1cccc(Nc2nc(Nc3cccc(OC(C)(C)CO)c3)ncc2F)c1 [Compound I-91, N-(3-(5-fluoro-2-(3-(1-hydroxy-2-methylpropan-2-yloxy)phenylamino)pyrimidin-4-ylamino)phenyl)acrylamide]	10 to 100	< 10	–	10 to 100	–
C=CC(=O)Nc1cc(Nc2nc(Nc3ccc(OCCOC)cc3)ncc2F)ccc1F [Compound I-87, N-(2-fluoro-5-(5-fluoro-2-(4-(2-methoxyethoxy)phenylamino)pyrimidin-4-ylamino)phenyl)acrylamide]	10 to 100	< 10	< 10	–	–
C=CC(=O)Nc1cccc(Nc2nc(Nc3ccc(OCC4CCN(C)CC4)cc3)ncc2F)c1 [Compound I-90, N-(3-(5-fluoro-2-(4-((1-methylpiperidin-4-yl)methoxy)phenylamino)pyrimidin-4-ylamino)phenyl)acrylamide]	–	< 10	–	< 10	< 10
C=CC(=O)Nc1cccc(Oc2nc(Nc3cccc(OC)c3)ncc2C(=O)Nc2ccccc2)c1 [Compound I-200, 4-(3-acrylamidophenoxy)-2-(3-methoxyphenylamino)-pyrimidine-5-carboxylic acid phenylamide]	–	< 10	–	> 10000	< 10
C=C(C)C(=O)c1cccc(Nc2nc(Nc3ccc(OCCOC)c(F)c3)ncc2F)c1 [Compound I-322, 1-(3-(5-fluoro-2-(3-fluoro-4-(2-methoxyethoxy)phenylamino)pyrimidin-4-ylamino)phenyl)-2-methylprop-2-en-1-one]	10 to 100	< 10	–	< 10	–
C=CC(=O)Nc1cccc(Nc2nc(Nc3cccc(OCC4CCCN(C)C4)c3)ncc2F)c1 (centres unmarked) [Compound I-76, N-(3-(5-fluoro-2-(3-((1-methylpiperidin-3-yl)methoxy)phenylamino)pyrimidin-4-ylamino)phenyl)-acrylamide]	–	< 10	–	< 10	< 10
C=CC(=O)N1CCc2ccc(Nc3nc(Nc4ccc(OCCOC)cc4)ncc3F)cc21 [Compound I-94, 1-(6-(5-fluoro-2-(4-(2-methoxyethoxy)phenylamino)pyrimidin-4-ylamino)indolin-1-yl)prop-2-en-1-one]	100 to 1000	< 10	–	10 to 100	–
